How the values were obtained:
[1] = molecular target: T1, GIRK1/4 (Homo sapiens, UniProt P48544+P48549); assay: GIRK1/4 in vitro activity assay (IonWorks Quattro population patch clamp); type: cell-based; settings: GIRK 1/4 HEK293 stable cells, inward potassium current; read-out: inhibitory activity (IC50)
T1 sequence (P48549 1-501): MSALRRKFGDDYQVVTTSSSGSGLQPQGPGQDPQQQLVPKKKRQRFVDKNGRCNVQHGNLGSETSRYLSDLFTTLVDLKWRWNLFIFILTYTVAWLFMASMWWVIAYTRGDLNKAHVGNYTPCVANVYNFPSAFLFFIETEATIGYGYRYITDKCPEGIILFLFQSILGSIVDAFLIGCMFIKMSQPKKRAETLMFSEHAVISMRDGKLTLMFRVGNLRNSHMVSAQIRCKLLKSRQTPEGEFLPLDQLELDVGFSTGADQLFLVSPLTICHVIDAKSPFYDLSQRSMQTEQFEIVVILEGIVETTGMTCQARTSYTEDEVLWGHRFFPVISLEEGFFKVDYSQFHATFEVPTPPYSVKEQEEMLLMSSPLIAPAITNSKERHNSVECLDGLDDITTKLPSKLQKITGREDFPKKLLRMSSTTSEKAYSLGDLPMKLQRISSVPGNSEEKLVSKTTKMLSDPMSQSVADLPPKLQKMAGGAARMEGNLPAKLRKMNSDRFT
T1 sequence (P48544 1-419): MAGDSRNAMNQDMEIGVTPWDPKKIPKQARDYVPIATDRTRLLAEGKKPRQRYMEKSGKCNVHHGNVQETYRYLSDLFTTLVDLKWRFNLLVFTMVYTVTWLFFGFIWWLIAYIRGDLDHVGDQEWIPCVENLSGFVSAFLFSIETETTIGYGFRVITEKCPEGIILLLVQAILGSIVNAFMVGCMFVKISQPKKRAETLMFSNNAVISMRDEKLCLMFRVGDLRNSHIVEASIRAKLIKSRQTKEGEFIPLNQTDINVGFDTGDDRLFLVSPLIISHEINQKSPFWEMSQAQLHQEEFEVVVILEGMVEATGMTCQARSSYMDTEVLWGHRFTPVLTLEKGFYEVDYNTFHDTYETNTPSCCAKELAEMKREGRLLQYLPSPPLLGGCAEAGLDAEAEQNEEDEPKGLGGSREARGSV
Description: The GIRK1/4 activity of the parent compounds formed after cleavage upon hydrolysis of the phosphoric acid ester group of the compounds according to the present disclosure was assessed by the following in vitro method.
• a. External buffer: 10 mM NaCl, 50 mM Na Gluconate, 80 mM K Gluconate, 1.8 mM CaCl2, 1 mM MgCl2, 10 mM HEPES, 10 mM Glucose, pH 7.4; osmolarity […]. • b. Internal buffer: 30 mM KCl, 100 mM K Gluconate, 1 mM MgCl2, 10 mM HEPES, 1 mM EGTA, 10 mM NaCl, pH 7.2; osmolarity […].
• c. Prepare seven-fold compound dilution series (10 mM to 20 μM) in 100% DMSO, in 384-well polypropylene plates. • d. Propafenone (Sigma Aldrich, catalog number P4670) was used as a positive control and DMSO for neutral control. • e. Resuspend 1 μl of compounds in DMSO into 66.7 μl external buffer in 384-well polypropylene plate and load into Plate 1 section of Molecular Devices Quattro.
• f. […]
Quattro was controlled using IonWorks v2 software to perform the following steps: • p. […] Measured magnitude of inward potassium current at time point between 1200-1220 ms from start of Pulse 1 (i.e. during the voltage ramp phase). • t. […]
IC50 values were calculated by plotting the percentage of current inhibition (normalized to the DMSO-only control) as a function of compound concentration using standard data analysis software.

[2] = In vitro conversion of pro-drug to parent compound by intestinal S9 fraction (human); type: in vitro ADME; settings: pooled intestinal S9 fraction, 37° C., read-out: T1/2 of conversion to the parent compound
Description: (§1) Drug stock solutions (100 μM) were prepared in methanol by two subsequent 1:10 dilutions from 10 mM DMSO drug solutions.
(§2) Frozen pooled intestinal S9 fractions (final protein concentration 2 mg/mL), alamethicin (25 μg/mg). 0.IM phosphate buffer containing 1 mM magnesium chloride and NADPH (final concentration 1 mM) plus UDPGA (final concentration 3.5 mM) are pre incubated at 37° C. prior to the addition of test compound (final substrate concentration 1 μM; final DMSO concentration 0.25%) to initiate the reaction. An additional incubation is performed in the absence of cofactors (NADPH, UDPGA).
(§3) Incubation plate was incubated on a shaker with temperature controlled at 37° C. Sequential samples were removed at designated timepoints (0, 5, 15, 30, 60 and 120 mins) and quenched with 4 volumes of ice-cold acetonitrile (containing internal standard glyburide). At the end of the incubation, samples plates were centrifuged, and supernatants reconstituted in water. Samples were then analyzed by LC/MS to assess parent depletion.
(§4) A ratio of compound peak area/internal standard peak area for each time point is generated and subsequently expressed as % of the response at time 0. The percentage stability of a compound in intestinal S9 solution at time t is calculated as detailed in Equation 1: […]
(§5) The half-life (t1/2) is calculated using the Equation 2: […]

[3] = In vitro conversion of pro-drug to parent compound by intestinal S9 fraction (rat); type: in vitro ADME; settings: Sprague-Dawley, pooled intestinal S9 fraction, 37° C., read-out: T1/2 of conversion to the parent compound
Description: as §1, §2, §3, §4, §5

[4] = In vitro conversion of pro-drug to parent compound by intestinal S9 fraction (dog); type: in vitro ADME; settings: beagle, pooled intestinal S9 fraction, 37° C., read-out: T1/2 of conversion to the parent compound
Description: as §1, §2, §3, §4, §5

| Structure (SMILES) | IC50 [1] [µM] | half-life at 1 μM ([2]; human intestinal S9, + cofactor (NADPH, UDPGA)) [min] | half-life at 1 μM ([2]; human intestinal S9, − cofactor) [min] | half-life at 1 μM ([3]; rat intestinal S9, + cofactor (NADPH, UDPGA)) [min] | half-life at 1 μM ([3]; rat intestinal S9, − cofactor) [min] | half-life at 1 μM ([4]; dog intestinal S9, + cofactor (NADPH, UDPGA)) [min] | half-life at 1 μM ([4]; dog intestinal S9, − cofactor) [min] |
| --- | --- | --- | --- | --- | --- | --- | --- |
| CNC(=O)[C@@H](O)COc1ncc(Cl)c2c1c(=O)cc(C)n2-c1c(Cl)cc(OCCOP(=O)(O)O)cc1Cl [Example 1, (S)-2-(3,5-dichloro-4-(8-chloro-5-(2-hydroxy-3-(methylamino)-3-oxopropoxy)-2-methyl-4-oxo-1,6-naphthyridin-1 (4H)-yl)phenoxy)ethyl dihydrogen phosphate] | > 10 | – | – | – | – | – | – |
| CNC(=O)[C@@H](O)COc1ncc(Cl)c2c1c(=O)cc(C)n2-c1c(Cl)cc(OCCOP(=O)(O)O)cc1Cl.[Ca] [Example 1a, (S)-2-(3,5-dichloro-4-(8-chloro-5-(2-hydroxy-3-(methylamino)-3-oxopropoxy)-2-methyl-4-oxo-1,6-naphthyridin-1(4H)-yl)phenoxy)ethyl dihydrogen phosphate calcium salt] | – | 88.7 | 86.7 | 14.4 | 16.5 | 45.3 | 46 |
| CNC(=O)[C@H](COc1ncc(Cl)c2c1c(=O)cc(C)n2-c1c(Cl)cc(OCCO)cc1Cl)OP(=O)(O)O [Example 2, (S)-3-((8-chloro-1-(2,6-dichloro-4-(2-hydroxyethoxy)phenyl)-2-methyl-4-oxo-1,4-dihydro-1,6-naphthyridin-5-yl)oxy)-1-(methylamino)-1-oxopropan-2-yl dihydrogen phosphate] | > 10 | – | – | – | – | – | – |

— US20240391941A1, “NAPHTHYRIDINONE DERIVATIVES FOR THE TREATMENT OF A DISEASE OR DISORDER” (Novartis AG, priority 2023, published 2024)
